Reference: patent US10952992B2, “Methods of treating intraocular pressure with activators of Tie-2” (Aerpio Pharmaceuticals, Inc., priority 2015, dated 2021)
Several values for one entry are separate records, joined by “and”; a condition that tells them apart may be missing. Equal entries are not always repeated.

Assays:
[1] = Example 2 aqueous humor concentrations; assay type: in vivo, male New Zealand White rabbits; conditions: for Average Peak Concentration, Aqueous Humor: suspension
Description: (§1) To measure the concentration of Compound 1 in plasma and ocular tissues following topical ocular, subcutaneous, and intravitreal administration, New Zealand White rabbits were administered Compound 1, and plasma and ocular samples were collected at pre-determined time points. Compound 1 formulations were prepared fresh on each day of dosing.
(§2) Ocular tissue samples from both eyes of each animal were collected and weights were recorded. Plasma and ocular tissue sample concentrations of Compound 1 were determined by LC-MS/MS.
(§3) Animals were anesthetized for ocular (topical) and intravitreal dosing following the 12IA7 IACUC protocol. Each rabbit received a bolus dose of test formulation either via topical ocular administration 3 times daily on Days 1 and 2 (at 0, 6, and 12 hours), and once on Day 3 (at 0 hours) into both eyes; via intravitreal administration into both eyes once on Day 1 (at 0 hours); or via subcutaneous administration 2 times daily on Days 1 and 2 (at 0 and 8 hours) and once daily on Day 3 (at 0 hours). Doses were given within an approximately 1 hour window each day where applicable.
On Day 1, for intravitreal administration, or on Day 3, for topical ocular and subcutaneous administration, at the appropriate ocular tissue collection time points, animals were euthanized and both eyes were enucleated immediately. Following enucleation, each eye was rinsed with phosphate-buffered saline. Ocular tissue samples from both eyes of each animal were collected at predetermined time points and weights were recorded. All the samples were frozen immediately on dry ice, and stored at −60° C. to −80° C. pending bioanalysis.
(§4) An LC-MS/MS method was developed for the determination of Compound 1 in rabbit aqueous tissues (plasma, aqueous and vitreous humor) and solid ocular tissue samples. A pre-study standard curve was analyzed to determine the specificity, range, and lower limit of quantitation of the method. Plasma and tissue homogenate study samples were extracted and analyzed. All the samples were treated identically to the standards.
(§5) One eight-point standard curve was used in each analytical batch. To be accepted, each batch must have had at least five of eight standards with accuracy within ±20% of nominal, except at the lower limit of quantification (LLOQ), where ±25% was acceptable.

[2] = Example 2 plasma concentrations and pharmacokinetics after topical ocular, subcutaneous, intravitreal administration; assay type: in vivo, male New Zealand White rabbits
Description: as §1, §2
New Zealand White rabbits weighing 2.5 to 3.5 kg were used on this study. Rabbits were housed one per cage. Animals were not fasted and only healthy animals with no ocular illness were used. Two rabbits per group were sacrificed at each of four ocular tissue sampling time points for a total of eight rabbits per group.
as §3
Each blood sample was collected on Day 3 post dose at pre-determined time points from the rabbits via an ear vessel and placed into chilled polypropylene tubes containing sodium heparin as an anticoagulant. Samples were spun by centrifuge at 4° C. and 3,000× g for 5 minutes. Samples were maintained chilled throughout processing. Each plasma sample was placed on dry ice and stored in a freezer at −60° C. to −80° C. pending bioanalysis.
as §4, §5
Pharmacokinetic parameters were calculated from the time course of the plasma concentration. The maximum plasma concentration (Cmax) and time to the maximum plasma drug concentration (Tmax) were the observed values for each concentration-time profiles. The area under the plasma drug concentration-time curve (AUClast, with last being from time 0 to the last quantifiable point) was calculated using the trapezoidal formula. The mean residence time MRTlast was calculated as a ratio of AUMClast (area under the first movement curve) to AUClast.

[3] = Group 3 (subcutaneous 5 mg/kg/dose, suspension), 2.0 hr
[4] = Group 3 (subcutaneous 5 mg/kg/dose, suspension), 4.0 hr
[5] = Group 5 (intravitreal 2.5 mg/eye, suspension), 6.0 hr
[6] = Group 5 (intravitreal 2.5 mg/eye, suspension), 24 hr
[7] = Group 5 (intravitreal 2.5 mg/eye, suspension), 72 hr
[8] = Group 3: subcutaneous 5 mg/kg/dose, 40 mM phosphate buffer pH 4.0 + 2.5% dextrose suspension
[9] = Group 3: subcutaneous 5 mg/kg/dose, 40 mM phosphate buffer pH 4.0 + 2.5% dextrose suspension, 0.25 hr
[10] = Group 3: subcutaneous 5 mg/kg/dose, 40 mM phosphate buffer pH 4.0 + 2.5% dextrose suspension, 0.50 hr
[11] = Group 3: subcutaneous 5 mg/kg/dose, 40 mM phosphate buffer pH 4.0 + 2.5% dextrose suspension, 1.0 hr
[12] = Group 3: subcutaneous 5 mg/kg/dose, 40 mM phosphate buffer pH 4.0 + 2.5% dextrose suspension, 2.0 hr
[13] = Group 3: subcutaneous 5 mg/kg/dose, 40 mM phosphate buffer pH 4.0 + 2.5% dextrose suspension, 4.0 hr
[14] = Group 3: subcutaneous suspension, normalized by nominal dose 5 mg/kg
[15] = Group 5: intravitreal 2.5 mg/eye (~1.54 mg/kg), 40 mM phosphate buffer pH 4.0 suspension
[16] = Group 5: intravitreal 2.5 mg/eye (~1.54 mg/kg), 40 mM phosphate buffer pH 4.0 suspension, 1.0 hr
[17] = Group 5: intravitreal 2.5 mg/eye (~1.54 mg/kg), 40 mM phosphate buffer pH 4.0 suspension, 3.0 hr
[18] = Group 5: intravitreal 2.5 mg/eye (~1.54 mg/kg), 40 mM phosphate buffer pH 4.0 suspension, 6.0 hr
[19] = Group 5: intravitreal 2.5 mg/eye (~1.54 mg/kg), 40 mM phosphate buffer pH 4.0 suspension, 24.0 hr
[20] = Group 5: intravitreal 2.5 mg/eye (~1.54 mg/kg), 40 mM phosphate buffer pH 4.0 suspension, 48.0 hr
[21] = Group 5: intravitreal 2.5 mg/eye (~1.54 mg/kg), 40 mM phosphate buffer pH 4.0 suspension, 72.0 hr
[22] = Group 5: intravitreal suspension, normalized by nominal dose 1.54 mg/kg

aqueous humor Average Conc. ([1]; Group 3 (subcutaneous 5 mg/kg/dose, suspension), 0.5 hr): 1.21 ng/g
aqueous humor Average Conc. ([1]; Group 3 (subcutaneous 5 mg/kg/dose, suspension), 1.0 hr): 0.41 ng/g
aqueous humor Average Conc. [1, 3]: 0.66 ng/g
aqueous humor Conc. OD [1, 3]: 0.601 ng/mL
aqueous humor Average Conc. [1, 4]: 0.51 ng/g
aqueous humor Conc. OS [1, 4]: 0.229 ng/mL
Average Peak Concentration, Aqueous Humor ([1]; Group 3: subcutaneous 5 mg/kg/dose): 1.21 ng/g
aqueous humor Average Conc. [1, 5]: 26400 ng/g
aqueous humor Conc. OD [1, 5]: 34200 ng/mL and 23400 ng/mL
aqueous humor Average Conc. [1, 6]: 4270 ng/g
aqueous humor Conc. OD [1, 6]: 3890 ng/mL and 5540 ng/mL
aqueous humor Average Conc. ([1]; Group 5 (intravitreal 2.5 mg/eye, suspension), 48 hr): 915 ng/g
aqueous humor Average Conc. [1, 7]: 120 ng/g
aqueous humor Conc. OD [1, 7]: 145 ng/mL and 94.1 ng/mL
Average Peak Concentration, Aqueous Humor ([1]; Group 5: intravitreal 1.54 mg/kg/dose): 26400 ng/g
plasma AUClast (± SE) [2, 8]: 864 ± 69 ng·h/mL and 864 ng·h/mL
plasma AUC∞ [2, 8]: 1198 ng·h/mL
plasma Cmax (± SE) [2, 8]: 395 ± 170 ng/mL and 395 ng/mL
plasma MRTlast [2, 8]: 1.58 h
plasma t1/2 [2, 8]: 2.12 h
plasma tmax [2, 8]: 0.25 h
plasma Average conc. [2, 9]: 395 ng/mL
plasma Conc., individual rabbit [2, 9]: 225 ng/mL and 565 ng/mL
plasma Average conc. [2, 10]: 337 ng/mL
plasma Conc., individual rabbit [2, 10]: 272 ng/mL and 401 ng/mL
plasma Average conc. [2, 11]: 295 ng/mL
plasma Conc., individual rabbit [2, 11]: 300 ng/mL and 289 ng/mL
plasma Average conc. [2, 12]: 206 ng/mL
plasma Conc., individual rabbit [2, 12]: 194 ng/mL and 217 ng/mL
plasma Average conc. [2, 13]: 110 ng/mL
plasma Conc., individual rabbit [2, 13]: 111 ng/mL and 108 ng/mL
plasma AUC∞, dose normalized [2, 14]: 240 kg·ng·h/mL/mg
plasma AUClast (± SE) [2, 15]: 707 ± 53.1 ng·h/mL and 707 ng·h/mL
plasma AUC∞ [2, 15]: 746 ng·h/mL
plasma Cmax (± SE) [2, 15]: 25.3 ± 9.30 ng/mL and 25.3 ng/mL
plasma MRTlast [2, 15]: 19.1 h
plasma t1/2 [2, 15]: 16.5 h
plasma tmax [2, 15]: 1.00 h
plasma Average conc. [2, 16]: 25.3 ng/mL
plasma Conc., individual rabbit [2, 16]: 34.6 ng/mL and 16.0 ng/mL
plasma Average conc. [2, 17]: 24.4 ng/mL
plasma Conc., individual rabbit [2, 17]: 28.4 ng/mL and 20.4 ng/mL
plasma Average conc. [2, 18]: 23.1 ng/mL
plasma Conc., individual rabbit [2, 18]: 22.0 ng/mL and 24.1 ng/mL
plasma Average conc. [2, 19]: 12.3 ng/mL
plasma Conc., individual rabbit [2, 19]: 9.96 ng/mL and 14.7 ng/mL
plasma Average conc. [2, 20]: 3.63 ng/mL
plasma Conc., individual rabbit [2, 20]: 2.69 ng/mL and 4.57 ng/mL
plasma Average conc. [2, 21]: 1.65 ng/mL
plasma Conc., individual rabbit [2, 21]: 1.83 ng/mL and 1.46 ng/mL
plasma tmax ([2]; Group 5: intravitreal 2.5 mg/eye (~1.54 mg/kg), 40 mM phosphate buffer pH 4.0 suspension, listed as Compound 1 (free acid)): 1 h
plasma AUC∞, dose normalized [2, 22]: 484 kg·ng·h/mL/mg
SMILES: COC(=O)N[C@@H](Cc1ccccc1)C(=O)N[C@@H](Cc1ccc(NS(=O)(=O)O)cc1)c1csc(-c2cccs2)n1 [Compound 1 free acid]
plasma AUClast, dose normalized [2, 14]: 173 ± 13.8 kg·ng·h/mL/mg and 173 kg·ng·h/mL/mg
plasma AUClast, dose normalized [2, 22]: 459 ± 34.5 kg·ng·h/mL/mg and 459 kg·ng·h/mL/mg
